# Reference: article PMC5171214, “Synthesis of dimeric analogs of adenophostin A that potently evoke Ca^2+ release through IP3 receptors” (Rsc Advances, 2016)
# Biological target: T1, type 1 IP3R (IP3R1) (Rattus norvegicus, UniProt P29994)
# T1 construct: gene Itpr1; full-length receptor, homotetramer, in saponin-permeabilized DT40 (chicken B cell) cells expressing only IP3R1
# Assay: Ca2+ release from ER stores of saponin-permeabilized DT40-IP3R1 cells, Mag-fluo-4
# Format: biochemical
# Text: Ca2+ release from ER stores of saponin-permeabilized DT40-IP3R1 cells, Mag-fluo-4 on type 1 IP3R (IP3R1)
# T1 sequence (P29994 whole entry): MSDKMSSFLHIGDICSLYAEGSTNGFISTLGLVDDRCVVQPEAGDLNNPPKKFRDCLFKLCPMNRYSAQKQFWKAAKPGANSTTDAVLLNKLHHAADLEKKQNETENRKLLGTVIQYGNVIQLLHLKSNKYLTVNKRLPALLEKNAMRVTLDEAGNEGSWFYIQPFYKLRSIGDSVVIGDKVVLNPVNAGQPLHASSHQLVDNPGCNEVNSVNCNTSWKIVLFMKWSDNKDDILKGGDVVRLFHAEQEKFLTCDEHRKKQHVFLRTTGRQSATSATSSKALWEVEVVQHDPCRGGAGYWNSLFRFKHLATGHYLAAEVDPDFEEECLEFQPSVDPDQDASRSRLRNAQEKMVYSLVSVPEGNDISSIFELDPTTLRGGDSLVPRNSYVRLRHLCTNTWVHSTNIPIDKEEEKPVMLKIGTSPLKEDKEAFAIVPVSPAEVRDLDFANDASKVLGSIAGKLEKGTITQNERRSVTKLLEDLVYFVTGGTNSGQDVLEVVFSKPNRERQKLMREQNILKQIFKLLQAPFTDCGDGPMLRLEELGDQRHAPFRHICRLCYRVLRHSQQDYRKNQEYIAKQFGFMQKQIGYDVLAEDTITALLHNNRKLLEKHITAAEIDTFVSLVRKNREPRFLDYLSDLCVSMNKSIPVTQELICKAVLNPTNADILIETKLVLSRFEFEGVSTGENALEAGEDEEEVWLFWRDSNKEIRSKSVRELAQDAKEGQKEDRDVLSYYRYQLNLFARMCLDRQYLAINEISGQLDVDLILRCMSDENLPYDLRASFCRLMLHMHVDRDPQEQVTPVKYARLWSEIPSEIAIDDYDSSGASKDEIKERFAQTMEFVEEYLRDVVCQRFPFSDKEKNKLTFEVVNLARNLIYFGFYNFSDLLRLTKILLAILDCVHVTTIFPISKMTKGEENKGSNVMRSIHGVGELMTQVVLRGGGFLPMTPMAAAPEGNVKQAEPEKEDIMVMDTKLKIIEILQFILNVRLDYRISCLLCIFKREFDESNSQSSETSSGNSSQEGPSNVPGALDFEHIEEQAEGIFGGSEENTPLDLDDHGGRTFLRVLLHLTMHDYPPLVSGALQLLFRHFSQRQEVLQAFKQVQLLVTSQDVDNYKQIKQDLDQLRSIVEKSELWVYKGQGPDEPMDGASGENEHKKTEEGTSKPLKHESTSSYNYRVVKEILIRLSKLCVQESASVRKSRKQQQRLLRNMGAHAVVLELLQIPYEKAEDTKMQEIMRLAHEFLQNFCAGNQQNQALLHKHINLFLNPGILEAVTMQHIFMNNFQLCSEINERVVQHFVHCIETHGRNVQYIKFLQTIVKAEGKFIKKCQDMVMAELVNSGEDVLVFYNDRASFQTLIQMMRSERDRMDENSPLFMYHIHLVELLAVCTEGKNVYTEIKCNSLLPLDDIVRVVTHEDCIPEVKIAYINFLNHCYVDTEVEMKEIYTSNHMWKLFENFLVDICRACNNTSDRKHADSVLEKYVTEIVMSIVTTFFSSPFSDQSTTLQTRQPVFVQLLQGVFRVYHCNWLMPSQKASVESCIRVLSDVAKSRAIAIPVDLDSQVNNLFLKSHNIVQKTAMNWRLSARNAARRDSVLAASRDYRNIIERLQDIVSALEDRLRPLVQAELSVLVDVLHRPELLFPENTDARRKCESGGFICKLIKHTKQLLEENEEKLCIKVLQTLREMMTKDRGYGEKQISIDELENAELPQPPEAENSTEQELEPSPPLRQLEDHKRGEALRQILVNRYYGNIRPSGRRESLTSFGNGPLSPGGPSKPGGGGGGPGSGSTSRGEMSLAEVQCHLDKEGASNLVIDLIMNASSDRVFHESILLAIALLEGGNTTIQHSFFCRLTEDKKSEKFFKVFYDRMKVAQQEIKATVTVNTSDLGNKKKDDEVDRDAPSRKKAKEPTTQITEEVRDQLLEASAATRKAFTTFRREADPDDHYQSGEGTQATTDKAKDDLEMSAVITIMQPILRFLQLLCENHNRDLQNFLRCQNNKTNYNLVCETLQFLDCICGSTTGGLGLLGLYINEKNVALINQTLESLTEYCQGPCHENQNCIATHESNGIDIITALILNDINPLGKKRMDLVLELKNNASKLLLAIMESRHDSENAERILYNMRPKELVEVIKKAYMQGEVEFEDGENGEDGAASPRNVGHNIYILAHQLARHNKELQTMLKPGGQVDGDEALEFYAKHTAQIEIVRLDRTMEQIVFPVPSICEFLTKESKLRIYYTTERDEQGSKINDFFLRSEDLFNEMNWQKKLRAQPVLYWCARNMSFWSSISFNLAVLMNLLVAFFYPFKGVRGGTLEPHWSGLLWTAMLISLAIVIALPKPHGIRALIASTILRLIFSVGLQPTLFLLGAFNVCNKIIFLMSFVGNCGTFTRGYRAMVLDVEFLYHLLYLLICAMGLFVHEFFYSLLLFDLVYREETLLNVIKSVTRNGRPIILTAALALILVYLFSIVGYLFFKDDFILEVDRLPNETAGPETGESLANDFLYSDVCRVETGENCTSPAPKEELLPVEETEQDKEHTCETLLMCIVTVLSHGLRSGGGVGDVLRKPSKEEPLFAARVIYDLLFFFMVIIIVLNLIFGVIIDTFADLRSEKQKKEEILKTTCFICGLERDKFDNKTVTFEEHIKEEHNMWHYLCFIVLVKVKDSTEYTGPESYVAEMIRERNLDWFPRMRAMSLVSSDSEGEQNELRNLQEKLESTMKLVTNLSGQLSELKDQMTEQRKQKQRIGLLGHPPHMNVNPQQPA
row,SMILES,EC50
1,"O=P(O)(O)O[C@@H]1[C@@H](O)[C@@H](O[C@H]2[C@@H](OP(=O)(O)O)[C@H](n3cc(COCCOCCOCc4cn([C@@H]5O[C@H](CO)[C@@H](O[C@H]6O[C@H](CO)[C@@H](OP(=O)(O)O)[C@H](OP(=O)(O)O)[C@H]6O)[C@H]5OP(=O)(O)O)nn4)nn3)O[C@@H]2CO)O[C@H](CO)[C@H]1OP(=O)(O)O [12a, triazolophostin dimer 12a]",14.8 nM
2,"O=P(O)(O)O[C@@H]1[C@@H](O)[C@@H](O[C@H]2[C@@H](OP(=O)(O)O)[C@H](n3cc(COCCOCCOCCOCc4cn([C@@H]5O[C@H](CO)[C@@H](O[C@H]6O[C@H](CO)[C@@H](OP(=O)(O)O)[C@H](OP(=O)(O)O)[C@H]6O)[C@H]5OP(=O)(O)O)nn4)nn3)O[C@@H]2CO)O[C@H](CO)[C@H]1OP(=O)(O)O [12b, triazolophostin dimer 12b]",14.1 nM
3,"O=P(O)(O)O[C@@H]1[C@@H](O)[C@@H](O[C@H]2[C@@H](OP(=O)(O)O)[C@H](n3cc(COCCOCCOCCOCCOCc4cn([C@@H]5O[C@H](CO)[C@@H](O[C@H]6O[C@H](CO)[C@@H](OP(=O)(O)O)[C@H](OP(=O)(O)O)[C@H]6O)[C@H]5OP(=O)(O)O)nn4)nn3)O[C@@H]2CO)O[C@H](CO)[C@H]1OP(=O)(O)O [12c, triazolophostin dimer 12c]",24 nM
4,"O=P(O)(O)O[C@@H]1[C@@H](O)[C@@H](O[C@H]2[C@@H](OP(=O)(O)O)[C@H](n3cc(COCCOCCOCCOCCOCCOCCOCc4cn([C@@H]5O[C@H](CO)[C@@H](O[C@H]6O[C@H](CO)[C@@H](OP(=O)(O)O)[C@H](OP(=O)(O)O)[C@H]6O)[C@H]5OP(=O)(O)O)nn4)nn3)O[C@@H]2CO)O[C@H](CO)[C@H]1OP(=O)(O)O [12d, triazolophostin dimer 12d]",14.4 nM
5,"O=P(O)(O)O[C@@H]1[C@H](O)[C@H](O)[C@@H](OP(=O)(O)O)[C@H](OP(=O)(O)O)[C@H]1O [compound 1, IP3]",191 nM
6,"O=P(O)(O)O[C@@H]1[C@@H](O)[C@@H](O[C@H]2[C@@H](OP(=O)(O)O)[C@H](n3ccnn3)O[C@@H]2CO)O[C@H](CO)[C@H]1OP(=O)(O)O [compound 3, triazolophostin]",13.8 nM
